According to patent US11898168B2, “Methods of promoting esophageal differentiation of pluripotent stem cells” (The Trustees of Columbia University in the City of New York, priority 2017, dated 2024):

Legend:
Format in all cases: cell-based, human
[1] = tested on: hESC RUES2-derived AFE cells; assay: Specification of anterior foregut endoderm (AFE) towards esophageal progenitor cells, day 6-16, gene expression by qPCR/immunostaining
Description: hPSCs were differentiated into endodermal and anterior foregut using a previously described protocol (Huang et al., 2015; Huang et al., 2014). Serum-Free Differentiation (SFD) medium was prepared as follows: 750 ml of reconstituted IMDM (ThermoFisher Scientific), 250 ml of F-12 (Corning), 7.5 ml of BSA (ThermoFisher Scientific), 10 ml of Glutamax (ThermoFisher Scientific), 5 ml of N2 (ThermoFisher Scientific), 10 ml of B27 (ThermoFisher Scientific) and 10 ml of Penicillin/Streptomycin (ThermoFisher Scientific), and adding L-Ascorbic acid (Sigma-Aldrich) and MTG (Sigma-Aldrich) on the day of use to obtain a final concentration of 50 μg/ml and 0.04 μl/ml, respectively. To generate endoderm, hPSCs were detached by Accutase/EDTA and cultured in SFD medium plus 10 μM Rock inhibitor 100 ng/ml Activin A, Y-27632 (Tocris), 2.5 ng FGF2 and 0.5 ng/ml BMP4 (R&D Systems) in 6-well Ultra-Low-Attachment plates (Corning) for 72 hours (day 1-4). At day 4, anterior foregut progenitor cells were further induced by culturing endoderm in SFD medium plus 10 μM SB431542 (Tocris) and 100 ng/ml Noggin (R&D Systems) for 24 hours (day 4-5) and SFD medium plus 10 μM SB431542 and 1 μM IWP-2 (Tocris) for another 24 hours (day 5-6). Cells were maintained at 5% O2/95% N2/5% CO2 from day 1-6.
To induce esophageal progenitor cell differentiation, anterior foregut progenitor cells were cultured from day 6 to day 16 in SFD medium plus 10 μM SB431542 and 50 ng/ml Noggin. From day 16 to day 24, cells were maintained at SFD medium. A previously described protocol was followed to generate lung progenitor cells from AFE (Huang et al., 2015; Huang et al., 2014) in which AFE cells were cultured in 3 μM CHIR99021 (Tocris), 10 ng/ml human FGF10 (R&D Systems), 10 ng/ml human KGF (R&D Systems), 10 ng/ml human BMP4 and 50 nM retinoid acid (RA, Sigma). Cells were cultured at 5% O2/95% N2/5% CO2 at day 6-7 and maintained at 95% air/5% CO2 from day 7 onwards.
For immunofluorescence staining, cells were fixed in 4% paraformaldehyde (PFA) for 15 minutes at room temperature and washed with 1×PBS for three times. Cells were permeabilized with 0.3% Triton X-100 in 1×PBS for 15 minutes. Then cells were incubated in blocking solution (0.3% Triton X-100 plus 2% donkey serum in 1×PBS) for 1 hour. Primary antibodies were added into blocking solution and incubated at 4° C. overnight. The next day, cells were washed with 1×PBS for three times. Secondary antibodies conjugated to Alexa Fluor 488, Cy3, or Alexa Fluor 647 (Jackson Immunoresearch) were incubated for 1 hour. Images were taken using Leica DMI6000 B (Leica Microsystems) or DMi8 (Leica Microsystems) and a Zeiss LSM700 confocal laser scanning microscope. Bright field images were acquired using a Nikon Labophot 2 microscope equipped with a Nikon Digital Sight DS-Ri1 charge-coupled device camera. The thickness and areas composed of KRT13^+ cells were calculated by ImageJ (National Institutes of Health). For X-gal staining, tissues were fixed in 4% paraformaldehyde for 30 minutes and incubated in X-gal solution overnight at 37° C. as previously described (Que et al., 2006).
(§1) Cells were lysed with TRIzol (Invitrogen) and RNA was purified using the RNeasy Mini Kit (QIAGEN). RNA was reversely transcribed to cDNA by the SuperScript III First-Strand SuperMix (Invitrogen). cDNA was quantified by real-time PCR using the iQ SYBR Green Supermix (Bio-Rad) and StepOnePlus™ Real-Time PCR System (Applied Biosystems). The transcript level of each gene was normalized to the ß-actin control using 2(−ΔΔCT) method. Relative gene expression was calculated and reported as fold change compared to the indicated samples using ß-actin normalized transcript level. All qRT-PCR experiments were performed at least triplicate.

[2] = tested on: hPSC-derived EPCs; assay: Squamous differentiation of purified hPSC-derived EPCs (KRT13, INV, KRT14 levels)
Description: To perform cell surface marker staining, cells were disassociated with 0.05% Trypsin-EDTA (ThermoFisher Scientific) and stained with fluorophore conjugated antibodies in FACS buffer (1×PBS, 2% FBS, 0.2 mM EDTA) for 30 min with live/dead staining dye (LIVE/DEAD™ Fixable Violet Dead Cell Stain Kit, ThermoFisher Scientific) to exclude dead cells. Intracellular staining cells were performed according to the manufacturer's instructions in eBioscience™ Foxp3/Transcription Factor Staining Buffer Set (ThermoFisher Scientific). Fixation and permeabilization was performed at room temperature for 1 hour followed by incubation of primary antibody for 1 hour. Cells were washed with 1×PBS and fluorophore-conjugated secondary antibodies were incubated for 1 hour. Stained cells were analyzed BD FACSCanto (BD Biosciences) data were analyzed with FlowJo software (Ashland, Oregon). Sorted EPCAM^+ ITGß4^+ cells were maintained in the medium containing 5% FBS, 20 ng/ml EGF, 20 ng/ml FGF2 and 10 μM Rock inhibitor Y27632.
as §1
The inventors have previously shown that BMP signaling activation promotes terminal differentiation of esophageal progenitors in the developing and adult esophagus (Jiang et al., 2015; Rodriguez et al., 2010). It was asked whether purified hPSCs-derived EPCs (ESC and iPSC-derived) respond to BMP activation in a similar manner.
(§2) It was then tested whether NOTCH signaling is involved in the differentiation of hPSC-derived EPCs. The iPSC-derived EPCs were treated with 10 μM γ-secretase inhibitor DAPT to block NOTCH signaling. As expected, treatment with DAPT led to downregulation of HESS, HEY1 and HEY2, the downstream targets of NOTCH signaling (Kopan and Ilagan, 2009).

[3] = tested on: NOTCH signaling; assay: Expression of NOTCH downstream targets in iPSC-derived EPCs; settings: 10 μM
Description: as §1, §2

[4] = 10 μM, iPSC-derived EPCs, vs vehicle, FIG. 6D
[5] = WNT activation in the presence of Noggin and SB431542, FIG. 1F
[6] = BMP4 treatment vs vehicle, ESC and iPSC-derived EPCs, FIGS. 6A-B

Molecule: C[C@H](NC(=O)Cc1cc(F)cc(F)c1)C(=O)N[C@H](C(=O)OC(C)(C)C)c1ccccc1 [DAPT]
- initial EPC commitment from the AFE ([1]; DAPT applied during PSC differentiation from AFE to EPC, FIG. 6C): did not affect
- expression of INV at the transcription and protein levels [2, 4]: reduced expression
- expression of KRT13 at the transcription and protein levels [2, 4]: reduced expression
- HESS expression (downstream target of NOTCH signaling) [3]: downregulation
- HEY1 expression (downstream target of NOTCH signaling) [3]: downregulation
- HEY2 expression (downstream target of NOTCH signaling) [3]: downregulation

Molecule: Cc1ccc2nc(NC(=O)CSc3nc4c(c(=O)n3-c3ccccc3)SCC4)sc2c1 [IWP2]
- esophageal specification ([1]; Noggin plus SB431542 in combination with 0.5, 1 or 2 μM IWP2, day 6 to day 16, gene expression at day 16, FIG. 1I): does not affect
- p63 expression ([1]; added to culture treated with Noggin and SB431542 at day 6-16, FIG. 1I): did not further promote

Molecule: Cc1c[nH]c(-c2cnc(NCCNc3ccc(C#N)cn3)nc2-c2ccc(Cl)cc2Cl)n1 [GSK inhibitor]
- levels of the general foregut marker SOX2 [1, 5]: remained unchanged
- levels of the posterior foregut marker HNF6 [1, 5]: increased
- levels of the posterior foregut marker PROX1 [1, 5]: increased
- p63 expression [1, 5]: reduced p63 expression in a dose-dependent manner

B1: Noggin: BMP inhibitor (R&D Systems) (protein, UniProt Q13253 28-232, looked up)
Noggin: QHYLHIRPAPSDNLPLVDLIEHPDPIFDPKEKDLNETLLRSLLGGHYDPGFMATSPPEDRPGGGGGAAGGAEDLAELDQLLRQRPSGAMPSEIKGLEFSEGLAQGKKQRLSKKLRRKLQMWLWSQTFCPVLYAWNDLGSRFWPRYVKVGSCFSKRSCSVPEGMVCKPSKSVHLTVLRWRCQRRGGQRCGWIPIQYPIISECKCSC
- AFE differentiation into p63+ NKX2.1- EPCs ([1]; Noggin treatment alone at day 6-16, FIG. 1E): insufficient

B2: BMP4: BMP signaling activator, growth factor (R&D Systems) (protein, UniProt P12644 293-408, looked up)
Bone morphogenetic protein 4: SPKHHSQRARKKNKNCRRHSLYVDFSDVGWNDWIVAPPGYQAFYCHGDCPFPLADHLNSTNHAIVQTLVNSVNSSIPKACCVPTELSAISMLYLDEYDKVVLKNYQEMVVEGCGCR
- differentiation of hPSC-derived EPCs ([2]; BMP4 treatment): promotes
- levels of Involucrin (INV) [2, 6]: significantly increase
- levels of KRT13 [2, 6]: significantly increase
- levels of KRT14 ([2]; BMP4 treatment, FIG. 6B): increased

B3: DKK1: WNT inhibitor (protein, UniProt O94907 32-266, looked up)
Dickkopf-related protein 1: TLNSVLNSNAIKNLPPPLGGAAGHPGSAVSAAPGILYPGGNKYQTIDNYQPYPCAEDEECGTDEYCASPTRGGDAGVQICLACRKRRKRCMRHAMCCPGNYCKNGICVSSDQNHFRGEIEETITESFGNDHSTLDGYSRRTTLSSKMYHTKGQEGSVCLRSSDCASGLCCARHFWSKICKPVLKEGQVCTKHRRKGSHGLEIFQRCYCGEGLSCRIQKDHHQASNSSRLHTCQRH
- p63 expression ([1]; WNT inhibitor alone, hPSCs, FIG. 1E): insufficient
